Test results from US9340590B2 (priority 2011, dated 2016).
Read-outs that look alike come from different tables or passages of the source. Positions of bridges follow the written chain, without caps; N, C: chain ends. Non-standard residues stand in square brackets, D forms with d. Residues, ends and D or L forms follow the SMILES beside them. *: point of attachment. 1Nal = N[C@@H](Cc1cccc2ccccc12)C(=O)O; 2Nal = N[C@@H](Cc1ccc2ccccc2c1)C(=O)O; Pent4ynoyl = C#CCCC(=O)*; Abu = CC[C@H](N)C(=O)O

Tests used:
hNav1.7 = hNav1.7 (Homo sapiens, UniProt Q15858); experiment: cell-based
hNav1.7, sequence (Q15858 whole entry, looked up): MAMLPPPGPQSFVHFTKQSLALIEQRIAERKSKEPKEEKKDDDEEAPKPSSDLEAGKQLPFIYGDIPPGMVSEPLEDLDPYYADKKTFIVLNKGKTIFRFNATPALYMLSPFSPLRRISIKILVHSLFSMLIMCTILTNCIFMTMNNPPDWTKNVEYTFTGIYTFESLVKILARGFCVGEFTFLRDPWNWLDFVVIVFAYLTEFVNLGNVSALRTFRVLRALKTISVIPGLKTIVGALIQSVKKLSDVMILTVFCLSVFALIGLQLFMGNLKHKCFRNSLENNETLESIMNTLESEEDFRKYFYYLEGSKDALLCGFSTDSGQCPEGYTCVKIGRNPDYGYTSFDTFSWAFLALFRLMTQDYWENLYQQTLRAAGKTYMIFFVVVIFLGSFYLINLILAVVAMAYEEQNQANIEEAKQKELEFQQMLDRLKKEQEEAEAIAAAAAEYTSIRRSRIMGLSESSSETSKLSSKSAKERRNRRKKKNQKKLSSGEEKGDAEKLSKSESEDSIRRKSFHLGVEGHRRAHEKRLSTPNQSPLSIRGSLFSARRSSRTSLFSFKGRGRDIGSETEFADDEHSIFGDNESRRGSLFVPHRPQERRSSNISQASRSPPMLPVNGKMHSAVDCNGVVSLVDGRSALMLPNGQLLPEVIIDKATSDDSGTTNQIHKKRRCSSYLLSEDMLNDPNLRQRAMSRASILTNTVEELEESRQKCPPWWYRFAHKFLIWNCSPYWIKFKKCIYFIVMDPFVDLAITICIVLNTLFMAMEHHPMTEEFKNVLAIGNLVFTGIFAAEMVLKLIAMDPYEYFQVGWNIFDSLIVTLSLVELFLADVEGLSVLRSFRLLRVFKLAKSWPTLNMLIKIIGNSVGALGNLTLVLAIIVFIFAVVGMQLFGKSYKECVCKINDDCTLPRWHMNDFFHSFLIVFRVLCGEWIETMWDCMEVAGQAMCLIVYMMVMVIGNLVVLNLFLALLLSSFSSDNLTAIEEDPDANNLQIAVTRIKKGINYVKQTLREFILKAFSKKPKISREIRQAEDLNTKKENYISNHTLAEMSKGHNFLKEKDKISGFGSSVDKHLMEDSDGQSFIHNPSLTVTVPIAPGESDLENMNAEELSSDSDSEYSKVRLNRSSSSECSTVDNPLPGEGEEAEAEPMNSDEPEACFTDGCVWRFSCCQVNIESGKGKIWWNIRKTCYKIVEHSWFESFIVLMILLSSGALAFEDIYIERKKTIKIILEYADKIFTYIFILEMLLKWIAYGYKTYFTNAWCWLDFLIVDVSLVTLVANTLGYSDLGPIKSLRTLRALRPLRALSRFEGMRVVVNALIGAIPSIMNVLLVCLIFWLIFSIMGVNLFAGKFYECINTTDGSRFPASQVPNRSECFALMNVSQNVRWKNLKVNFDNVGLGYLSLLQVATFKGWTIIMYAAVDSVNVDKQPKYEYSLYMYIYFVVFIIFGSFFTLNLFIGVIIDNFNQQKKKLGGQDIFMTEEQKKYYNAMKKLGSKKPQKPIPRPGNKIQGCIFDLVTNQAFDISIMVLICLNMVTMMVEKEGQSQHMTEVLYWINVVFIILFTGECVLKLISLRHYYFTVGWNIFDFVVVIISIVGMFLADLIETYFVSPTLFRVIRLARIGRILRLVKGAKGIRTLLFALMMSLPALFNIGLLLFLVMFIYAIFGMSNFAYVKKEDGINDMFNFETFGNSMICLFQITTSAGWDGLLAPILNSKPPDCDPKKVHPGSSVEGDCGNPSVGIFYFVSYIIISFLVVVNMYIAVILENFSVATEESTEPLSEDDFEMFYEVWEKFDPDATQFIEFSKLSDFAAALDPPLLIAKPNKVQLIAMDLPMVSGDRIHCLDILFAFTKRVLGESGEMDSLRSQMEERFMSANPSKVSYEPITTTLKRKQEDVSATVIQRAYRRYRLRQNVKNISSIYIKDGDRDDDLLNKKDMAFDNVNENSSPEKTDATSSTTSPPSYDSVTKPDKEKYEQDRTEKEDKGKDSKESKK

hNav1.5 = hNav1.5 (Homo sapiens, UniProt Q14524); experiment: cell-based
hNav1.5, sequence (Q14524 whole entry, looked up): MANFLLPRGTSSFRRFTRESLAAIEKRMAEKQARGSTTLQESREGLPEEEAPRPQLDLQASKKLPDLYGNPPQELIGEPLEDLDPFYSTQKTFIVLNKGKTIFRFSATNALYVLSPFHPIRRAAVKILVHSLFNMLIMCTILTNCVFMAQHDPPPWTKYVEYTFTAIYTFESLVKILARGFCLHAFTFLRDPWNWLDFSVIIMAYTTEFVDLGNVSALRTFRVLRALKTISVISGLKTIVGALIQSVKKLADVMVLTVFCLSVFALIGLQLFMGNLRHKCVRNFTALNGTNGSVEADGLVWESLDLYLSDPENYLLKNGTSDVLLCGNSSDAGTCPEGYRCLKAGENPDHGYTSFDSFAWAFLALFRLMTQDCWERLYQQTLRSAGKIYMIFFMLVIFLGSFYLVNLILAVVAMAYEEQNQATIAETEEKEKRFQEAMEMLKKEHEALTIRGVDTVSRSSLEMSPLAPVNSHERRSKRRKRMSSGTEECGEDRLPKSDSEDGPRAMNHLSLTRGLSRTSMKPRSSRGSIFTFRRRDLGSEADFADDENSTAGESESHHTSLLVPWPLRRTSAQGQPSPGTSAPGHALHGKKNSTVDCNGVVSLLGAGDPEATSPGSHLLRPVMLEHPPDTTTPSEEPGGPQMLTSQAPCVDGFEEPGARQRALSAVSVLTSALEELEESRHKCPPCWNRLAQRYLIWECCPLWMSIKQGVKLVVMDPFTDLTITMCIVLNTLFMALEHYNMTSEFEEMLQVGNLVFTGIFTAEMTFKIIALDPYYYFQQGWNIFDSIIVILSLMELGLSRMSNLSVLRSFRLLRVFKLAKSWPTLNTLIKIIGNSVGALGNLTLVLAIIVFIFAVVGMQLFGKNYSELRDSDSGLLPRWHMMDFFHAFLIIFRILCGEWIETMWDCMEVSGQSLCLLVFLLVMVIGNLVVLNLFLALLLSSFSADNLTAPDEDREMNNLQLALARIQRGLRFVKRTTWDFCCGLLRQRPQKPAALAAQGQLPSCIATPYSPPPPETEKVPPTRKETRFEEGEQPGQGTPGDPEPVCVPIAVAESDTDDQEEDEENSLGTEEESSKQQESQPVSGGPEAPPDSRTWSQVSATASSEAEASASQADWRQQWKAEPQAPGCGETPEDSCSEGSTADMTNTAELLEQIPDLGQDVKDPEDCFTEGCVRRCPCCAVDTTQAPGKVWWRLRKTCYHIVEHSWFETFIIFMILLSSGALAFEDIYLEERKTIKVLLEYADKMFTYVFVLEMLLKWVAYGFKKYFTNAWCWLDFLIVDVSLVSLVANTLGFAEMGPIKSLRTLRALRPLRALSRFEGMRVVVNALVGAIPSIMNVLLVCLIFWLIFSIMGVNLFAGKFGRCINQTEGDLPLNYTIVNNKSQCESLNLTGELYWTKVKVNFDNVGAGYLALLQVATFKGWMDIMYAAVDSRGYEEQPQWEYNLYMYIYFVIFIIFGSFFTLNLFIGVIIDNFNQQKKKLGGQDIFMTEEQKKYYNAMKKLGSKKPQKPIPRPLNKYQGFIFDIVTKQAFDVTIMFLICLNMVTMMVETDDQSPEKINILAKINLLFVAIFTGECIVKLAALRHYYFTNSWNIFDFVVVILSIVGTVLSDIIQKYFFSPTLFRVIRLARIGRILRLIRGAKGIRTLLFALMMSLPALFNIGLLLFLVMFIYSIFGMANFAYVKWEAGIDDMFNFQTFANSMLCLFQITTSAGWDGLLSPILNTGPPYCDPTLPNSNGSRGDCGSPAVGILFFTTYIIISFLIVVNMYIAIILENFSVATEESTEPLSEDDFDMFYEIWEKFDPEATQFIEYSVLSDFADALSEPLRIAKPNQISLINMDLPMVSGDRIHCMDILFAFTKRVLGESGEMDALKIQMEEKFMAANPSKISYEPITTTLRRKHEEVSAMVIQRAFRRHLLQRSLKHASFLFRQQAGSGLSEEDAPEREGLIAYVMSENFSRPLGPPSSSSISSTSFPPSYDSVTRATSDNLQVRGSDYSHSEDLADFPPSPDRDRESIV

Structure (SMILES) | IC50 (hNav1.7; Nav1.7 Use IC50) [µM] | IC50 (hNav1.5) [µM] | IC50 (hNav1.7; read-out: Nav1.7 Use IC50) [µM]
C#CCCC(=O)N[C@@H](CC(=O)O)C(=O)N[C@H]1CSSC[C@@H]2NC(=O)[C@@H]3CSSC[C@@H](C(=O)N[C@@H](CCCCN)C(=O)N[C@@H](Cc4ccc(O)cc4)C(=O)N[C@H](C(=O)N[C@@H](Cc4ccccc4)C(N)=O)C(C)C)NC(=O)[C@H](Cc4c[nH]c5ccccc45)NC(=O)[C@H](CCCNC(=N)N)NC(=O)[C@H](Cc4c[nH]cn4)NC(=O)[C@H]([C@@H](C)O)NC(=O)[C@H](CCCNC(=N)N)NC(=O)[C@H](CO)NC(=O)[C@H](CSSC[C@H](NC(=O)[C@H](CCCCN)NC(=O)[C@H](CCCNC(=N)N)NC(=O)[C@H](Cc4ccccc4)NC(=O)[C@H](C)NC(=O)CNC(=O)[C@H](CC(C)C)NC1=O)C(=O)N[C@@H]([C@@H](C)CC)C(=O)N1CCC[C@H]1C(=O)N[C@@H](CC(=O)O)C(=O)N[C@@H](CC)C(=O)N[C@@H](CC(=O)O)C(=O)N[C@@H](CCCCN)C(=O)N3)NC(=O)[C@H](C(C)C)NC(=O)[C@H](CC(C)C)NC(=O)[C@H](CC(N)=O)NC(=O)[C@@H]1CCCN1C(=O)[C@H](CCCNC(=N)N)NC2=O (Pent4ynoyl-DCLGAFRKCIPD[Abu]DKCCRPNLVCSRTHRWCKYVF-NH2; disulfide 2-17, 9-23, 16-30) | 0.004 | > 10 | –
C#CCCC(=O)N[C@@H](CC(=O)O)C(=O)N[C@H]1CSSC[C@@H]2NC(=O)[C@@H]3CSSC[C@@H](C(=O)N[C@@H](CCCCN)C(=O)N[C@@H](Cc4ccc(O)cc4)C(=O)N[C@H](C(=O)N[C@@H](Cc4ccccc4)C(N)=O)C(C)C)NC(=O)[C@H](Cc4c[nH]c5ccccc45)NC(=O)[C@H](CCCNC(=N)N)NC(=O)[C@H](Cc4c[nH]cn4)NC(=O)[C@H]([C@@H](C)O)NC(=O)[C@H](CCCNC(=N)N)NC(=O)[C@H](CO)NC(=O)[C@H](CSSC[C@H](NC(=O)[C@H](CCCCN)NC(=O)[C@H](CCCNC(=N)N)NC(=O)[C@H](CC(C)C)NC(=O)[C@H](CC)NC(=O)CNC(=O)[C@H](CC(C)C)NC1=O)C(=O)N[C@@H]([C@@H](C)CC)C(=O)N1CCC[C@H]1C(=O)N[C@@H](CC(=O)O)C(=O)N[C@@H](CC)C(=O)N[C@@H](CC(=O)O)C(=O)N[C@@H](CCCCN)C(=O)N3)NC(=O)[C@H](C(C)C)NC(=O)[C@H](CC(C)C)NC(=O)[C@H](CC(N)=O)NC(=O)[C@@H]1CCCN1C(=O)[C@H](CCCNC(=N)N)NC2=O [4-Pen-[2-Abu5,13;Leu6;Arg28]GpTx-1(1-34)] (Pent4ynoyl-DCLG[Abu]LRKCIPD[Abu]DKCCRPNLVCSRTHRWCKYVF-NH2; disulfide 2-17, 9-23, 16-30) | 0.003 | > 10 | –
CC[C@H](C)[C@@H]1NC(=O)[C@@H]2CSSC[C@@H]3NC(=O)[C@H](C(C)C)NC(=O)[C@H](CC(C)C)NC(=O)[C@H](CC(N)=O)NC(=O)[C@@H]4CCCN4C(=O)[C@H](CCCNC(=N)N)NC(=O)[C@H](CSSC[C@H](NC(=O)[C@@H](N)CC(=O)O)C(=O)N[C@@H](CC(C)C)C(=O)NCC(=O)N[C@@H](C)C(=O)N[C@@H](Cc4ccccc4)C(=O)N[C@@H](CCCNC(=N)N)C(=O)N[C@@H](CCCCN)C(=O)N2)NC(=O)[C@H](CSSC[C@@H](C(=O)N[C@@H](CCCCN)C(=O)N[C@@H](Cc2ccc(O)cc2)C(=O)N[C@H](C(=O)N[C@@H](Cc2ccccc2)C(=O)N[C@@H](Cc2ccccc2)C(=O)O)C(C)C)NC(=O)[C@H](Cc2c[nH]c4ccccc24)NC(=O)[C@H](CCCNC(=N)N)NC(=O)[C@H](Cc2c[nH]cn2)NC(=O)[C@H]([C@@H](C)O)NC(=O)[C@H](CCCNC(=N)N)NC(=O)[C@H](CO)NC3=O)NC(=O)[C@H](CCCCN)NC(=O)[C@H](CC(=O)O)NC(=O)[C@H](CC(N)=O)NC(=O)[C@H](CC(=O)O)NC(=O)[C@@H]2CCCN2C1=O [Ala5;Phe6;Arg28]GpTx-1(1-34)-Phe-] (H-DCLGAFRKCIPDNDKCCRPNLVCSRTHRWCKYVFF-OH; disulfide 2-17, 9-23, 16-30) | 0.116 | > 10 | –
CC[C@H](C)[C@@H]1NC(=O)[C@@H]2CSSC[C@@H]3NC(=O)[C@H](C(C)C)NC(=O)[C@H](CC(C)C)NC(=O)[C@H](CC(N)=O)NC(=O)[C@@H]4CCCN4C(=O)[C@H](CCCNC(=N)N)NC(=O)[C@H](CSSC[C@H](NC(=O)[C@@H](N)CC(=O)O)C(=O)N[C@@H](CC(C)C)C(=O)NCC(=O)N[C@@H](Cc4ccccc4)C(=O)N[C@@H](CCSC)C(=O)N[C@@H](CCCNC(=N)N)C(=O)N[C@@H](CCCCN)C(=O)N2)NC(=O)[C@H](CSSC[C@@H](C(=O)N[C@@H](CCCCN)C(=O)N[C@@H](Cc2ccc(O)cc2)C(=O)N[C@H](C(=O)N[C@@H](Cc2ccccc2)C(=O)N[C@@H](Cc2ccccn2)C(N)=O)C(C)C)NC(=O)[C@H](Cc2c[nH]c4ccccc24)NC(=O)[C@H](CCCCN)NC(=O)[C@H](Cc2c[nH]cn2)NC(=O)[C@H]([C@@H](C)O)NC(=O)[C@H](CCCNC(=N)N)NC(=O)[C@H](CO)NC3=O)NC(=O)[C@H](CCCCN)NC(=O)[C@H](CC(=O)O)NC(=O)[C@H](CC(N)=O)NC(=O)[C@H](CC(=O)O)NC(=O)[C@@H]2CCCN2C1=O [GpTx-1(1-34)-2PAL] | 0.027 | > 10 | –
CC[C@H](C)[C@@H]1NC(=O)[C@@H]2CSSC[C@@H]3NC(=O)[C@H](C(C)C)NC(=O)[C@H](CC(C)C)NC(=O)[C@H](CC(N)=O)NC(=O)[C@@H]4CCCN4C(=O)[C@H](CCCNC(=N)N)NC(=O)[C@H](CSSC[C@H](NC(=O)[C@@H](N)CC(=O)O)C(=O)N[C@@H](CC(C)C)C(=O)NCC(=O)N[C@@H](Cc4ccccc4)C(=O)N[C@@H](CCSC)C(=O)N[C@@H](CCCNC(=N)N)C(=O)N[C@@H](CCCCN)C(=O)N2)NC(=O)[C@H](CSSC[C@@H](C(=O)N[C@@H](CCCCN)C(=O)N[C@@H](Cc2ccc(O)cc2)C(=O)N[C@H](C(=O)N[C@@H](Cc2ccccc2)C(N)=O)C(C)C)NC(=O)[C@H](Cc2c[nH]c4ccccc24)NC(=O)[C@H](CCCCN)NC(=O)[C@H](Cc2c[nH]cn2)NC(=O)[C@H]([C@@H](C)O)NC(=O)[C@H](CCCNC(=N)N)NC(=O)[C@H](CO)NC3=O)NC(=O)[C@H](CCCCN)NC(=O)[C@H](CC(=O)O)NC(=O)[C@H](Cc2cccc3ccccc23)NC(=O)[C@H](CC(=O)O)NC(=O)[C@@H]2CCCN2C1=O [[1-Nal13]GpTx-1(1-34)] (H-DCLGFMRKCIPD[1Nal]DKCCRPNLVCSRTHKWCKYVF-NH2; disulfide 2-17, 9-23, 16-30) | – | 7.33 | 0.002
CC[C@@H]1NC(=O)[C@@H]2CSSC[C@@H](C(=O)N[C@@H](CCCCN)C(=O)N[C@@H](Cc3ccc(O)cc3)C(=O)N[C@H](C(=O)N[C@@H](Cc3ccccc3)C(N)=O)C(C)C)NC(=O)[C@H](Cc3c[nH]c4ccccc34)NC(=O)[C@H](CCCCN)NC(=O)[C@H](Cc3c[nH]cn3)NC(=O)[C@H]([C@@H](C)O)NC(=O)[C@H](CCCNC(=N)N)NC(=O)[C@H](CO)NC(=O)[C@H](CSSC[C@H](NC(=O)[C@H](CCCCN)NC(=O)[C@H](CCCNC(=N)N)NC(=O)[C@H](CCSC)NC(=O)[C@H](Cc3ccccc3)NC(=O)CNC(=O)[C@H](CC(C)C)NC(=O)[C@H](CC)NC(=O)[C@@H](N)CC(=O)O)C(=O)N[C@@H]([C@@H](C)CC)C(=O)N3CCC[C@H]3C(=O)N[C@@H](CC(=O)O)C(=O)N[C@@H](CC(N)=O)C(=O)N[C@@H](CC(=O)O)C(=O)N[C@@H](CCCCN)C(=O)N2)NC(=O)[C@H](C(C)C)NC(=O)[C@H](CC(C)C)NC(=O)[C@H](CC(N)=O)NC(=O)[C@@H]2CCCN2C(=O)[C@H](CCCNC(=N)N)NC1=O [[2-Abu2,17]GpTx-1(1-34)] (H-D[Abu]LGFMRKCIPDNDKC[Abu]RPNLVCSRTHKWCKYVF-NH2; disulfide 9-23, 16-30) | 0.021 | 10 | –
CC[C@@H]1NC(=O)CNC(=O)[C@H](CC(C)C)NC(=O)[C@@H](NC(=O)[C@@H](N)CC(=O)O)CSSC[C@@H]2NC(=O)[C@@H]3CSSC[C@@H](C(=O)N[C@@H](CCCCN)C(=O)N[C@@H](Cc4ccc(O)cc4)C(=O)N[C@H](C(=O)N[C@@H](Cc4ccccc4)C(N)=O)C(C)C)NC(=O)[C@H](Cc4c[nH]c5ccccc45)NC(=O)[C@H](CCCCN)NC(=O)[C@H](Cc4c[nH]cn4)NC(=O)[C@H]([C@@H](C)O)NC(=O)[C@H](CCCNC(=N)N)NC(=O)[C@H](CO)NC(=O)[C@H](CSSC[C@H](NC(=O)[C@H](CCCCN)NC(=O)[C@H](CCCNC(=N)N)NC(=O)[C@H](CC(C)C)NC1=O)C(=O)N[C@@H]([C@@H](C)CC)C(=O)N1CCC[C@H]1C(=O)N[C@@H](CC(=O)O)C(=O)N[C@@H](CC(N)=O)C(=O)N[C@@H](CC(=O)O)C(=O)N[C@@H](CCCCN)C(=O)N3)NC(=O)[C@H](C(C)C)NC(=O)[C@H](CC(C)C)NC(=O)[C@H](CC(N)=O)NC(=O)[C@@H]1CCCN1C(=O)[C@H](CCCNC(=N)N)NC2=O [[2-Abu5;Leu6]GpTx-1(1-34)] | 0.022 | > 10 | –
CC[C@H](C)[C@@H]1NC(=O)[C@@H]2CSSC[C@@H]3NC(=O)[C@H](C(C)C)NC(=O)[C@H](CC(C)C)NC(=O)[C@H](CC(N)=O)NC(=O)[C@@H]4CCCN4C(=O)[C@H](CCCNC(=N)N)NC(=O)[C@H](CSSC[C@H](NC(=O)[C@@H](N)CC(=O)O)C(=O)N[C@@H](CC(C)C)C(=O)NCC(=O)N[C@@H](Cc4ccccc4)C(=O)N[C@@H](CCSC)C(=O)N[C@@H](CCCNC(=N)N)C(=O)N[C@@H](CCCCN)C(=O)N2)NC(=O)[C@H](CSSC[C@@H](C(=O)N[C@@H](CCCCN)C(=O)N[C@@H](Cc2ccc(O)cc2)C(=O)N[C@H](C(=O)N[C@@H](Cc2ccccc2)C(N)=O)C(C)C)NC(=O)[C@H](Cc2ccc4ccccc4c2)NC(=O)[C@H](CCCCN)NC(=O)[C@H](Cc2c[nH]cn2)NC(=O)[C@H]([C@@H](C)O)NC(=O)[C@H](CCCNC(=N)N)NC(=O)[C@H](CO)NC3=O)NC(=O)[C@H](CCCCN)NC(=O)[C@H](CC(=O)O)NC(=O)[C@H](CC(N)=O)NC(=O)[C@H](CC(=O)O)NC(=O)[C@@H]2CCCN2C1=O [[2-Nal29]GpTx-1(1-34)] (H-DCLGFMRKCIPDNDKCCRPNLVCSRTHK[2Nal]CKYVF-NH2; disulfide 2-17, 9-23, 16-30) | 0.066 | > 10 | –
